The OligoGym collection
Values joined by “and” are separate entries in the source; they are usually repeats but may differ in a detail not shown here. Equal values may be shown once. After the bases stand the sugars from the 5' end (letter, count) and the backbone: PS all phosphorothioate, else s phosphorothioate and o phosphodiester by linkage. Methylation of C is not given here. e = 2'-O-(2-methoxyethyl) (MOE); k = constrained ethyl (cEt); d = 2'-deoxy (DNA)

Biological target: IRF4
Conditions: ASO

Row | Sequence | target mRNA inhibition (SK-MEL-28, 4 µM) [%] | target mRNA inhibition (MM.1R, 1 µM) | further results
1 | CTTCCCTGAGAAATGG (sugars k3 d10 k3, PS) | 50 |  | target mRNA inhibition (MM.1R, 0.074 µM): 6%; target mRNA inhibition (MM.1R, 0.222 µM): 2%; target mRNA inhibition (MM.1R, 0.666 µM): 1%; target mRNA inhibition (MM.1R, 2 µM): 4%; target mRNA inhibition (SK-MEL-28, 0.185 µM): 16%; target mRNA inhibition (SK-MEL-28, 5 µM): 60%; target mRNA inhibition (SK-MEL-28, 15 µM): 85%
2 | CCTCAGTTTGTGAAGC (sugars k2 d9 e3 k2, PS) |  | 33% | 
3 | GTTCTAGGGTCCTCCT (sugars k3 d10 k3, PS) | 50 |  | 
4 | AATGAACCCTAAGTTT (sugars k3 d10 k3, PS) | 3 |  | 
5 | CGCACTCCGGGCACCC (sugars k3 d10 k3, PS) |  | 11% | 
6 | ATGCATAACACGGTGT (sugars k3 d10 k3, PS) | 45 |  | 
7 | TGCTTTGCAGCATTGG (sugars k3 d10 k3, PS) |  | 30% | 
8 | CGGAGGTTCCTTGAGG (sugars k3 d10 k3, PS) |  | 42% and 52% | target mRNA inhibition (H929, 0.04 µM): 5% and 10%; target mRNA inhibition (KMS11, 0.2 µM): 28% and 21%; target mRNA inhibition (MM.1R, 0.0625 µM): 6%; target mRNA inhibition (MM.1R, 0.25 µM): 29%; target mRNA inhibition (MM.1R, 4 µM): 64%
9 | TCCAGAAAATTCAGCT (sugars k3 d10 k3, PS) | 48 |  | 
10 | AGTGTTCCAGGAGATA (sugars k3 d10 k3, PS) |  | 80% and 72% | target mRNA inhibition (MM.1R, 0.0625 µM): 43%; target mRNA inhibition (MM.1R, 0.25 µM): 59%; target mRNA inhibition (MM.1R, 4 µM): 84%
11 | CAGATAGTTAAGTACT (sugars k3 d10 k3, PS) | 44 |  | 
12 | TAGGGATACAGCAGGC (sugars k3 d10 k3, PS) | 73 |  | 
13 | TGGTTGGCTGGTCTTT (sugars k2 d9 e3 k2, PS) |  | 40% | 
14 | CCACGCGCGGAGGACC (sugars k3 d10 k3, PS) | 19 |  | 
15 | TTACTGTTACCGATGC (sugars k3 d10 k3, PS) |  | 26% and 35% | 
16 | CTGTAGGGCGACTAAC (sugars k3 d10 k3, PS) | 49 |  | 
17 | GGAGACACATACATTT (sugars k3 d10 k3, PS) | 22 |  | 
18 | GGAAGTTTACACTGGA (sugars kkdddddddddkekek, PS) |  | 47% | 
19 | ACCTCAGTTTGTGAAG (sugars k3 d9 k3 e1, PS) |  | 10% | 
20 | CATGATATTAGAGACT (sugars k3 d10 k3, PS) | 56 |  | 
21 | AGGGATGGAACAGTAA (sugars k3 d10 k3, PS) | 47 |  | 
22 | AGGTCTGAGTTGTACA (sugars k3 d10 k3, PS) |  | 55% and 45% | 
23 | AGTTGTAAATGAGTCG (sugars k3 d9 k3 e1, PS) |  | 87% | target mRNA inhibition (MM.1R, 0.074 µM): 27%; target mRNA inhibition (MM.1R, 0.222 µM): 61%; target mRNA inhibition (MM.1R, 0.666 µM): 80%; target mRNA inhibition (MM.1R, 2 µM): 95%
24 | ACCACAAGCAGTGATG (sugars k3 d10 k3, PS) |  | 1% | 

Row | Sequence | target mRNA inhibition (SK-MEL-28, 4 µM) [%] | target mRNA inhibition (MM.1R, 1 µM) | further results
25 | CTCAATAATCTCCCAG (sugars k3 d10 k3, PS) | 53 |  | 
26 | ATCTAATCCACAATCA (sugars k3 d10 k3, PS) | 30 |  | 
27 | GCCCGGCCGGGCCTTC (sugars k3 d10 k3, PS) |  | -4% | 
28 | CAGTGCTCTTTAACAA (sugars k3 d10 k3, PS) | 37 |  | 
29 | TTACTCTTAGGCACAT (sugars k3 d10 k3, PS) |  | 44% and 45% | 
30 | TTCACGCACCATTCAG (sugars k3 d10 k3, PS) | 16 |  | 
31 | TTGTCATGGTGTAGGG (sugars k3 d10 k3, PS) | 41 |  | 
32 | AACAAATTAAAGAGCG (sugars k3 d10 k3, PS) | 23 |  | 
33 | GGAGATACTTGTACTG (sugars k3 d10 k3, PS) | 66 | 55% | target mRNA inhibition (MM.1R, 0.0625 µM): 2%; target mRNA inhibition (MM.1R, 0.074 µM): 16%; target mRNA inhibition (MM.1R, 0.222 µM): 25%; target mRNA inhibition (MM.1R, 0.25 µM): 26%; target mRNA inhibition (MM.1R, 0.666 µM): 48%; target mRNA inhibition (MM.1R, 2 µM): 77%; target mRNA inhibition (MM.1R, 4 µM): 87%
34 | TCTATGGGATTATATA (sugars k3 d10 k3, PS) | 26 |  | 
35 | TATAGAGCATCACTAT (sugars k3 d10 k3, PS) | 41 |  | 
36 | GGGCAACTTTAACCAT (sugars k3 d10 k3, PS) | 8 |  | 
37 | GAAGTTTACACTGGAT (sugars kdddddddddkekeke, PS) |  | 11% | 
38 | GCACATCAATGTTTTA (sugars k3 d10 k3, PS) | 67 |  | 
39 | GTACGAGCACATGTCA (sugars k3 d10 k3, PS) |  | 0% | 
40 | GCCATGGCTGATCGCT (sugars k3 d10 k3, PS) | 30 |  | 
41 | TTTACACCGTTGCTCA (sugars k3 d10 k3, PS) |  | 3% | 
42 | GGCACAATTCTCTGAG (sugars k3 d10 k3, PS) | 43 |  | 
43 | CGCGGAGGACCTCGCC (sugars k3 d10 k3, PS) |  | -7% | 
44 | ATGATAAGGCACTACT (sugars k3 d10 k3, PS) | 13 |  | 
45 | CTATAGTGTTCCAGGA (sugars e1 k2 d9 k2 e2, PS) |  | 8% | 
46 | AGGAGAGGCTGAGATA (sugars k3 d10 k3, PS) | 21 |  | 
47 | CAAAACAGTAAGAGGG (sugars k3 d10 k3, PS) | 31 |  | 
48 | GGATTTCCGGGTGTGG (sugars k3 d10 k3, PS) | 61 |  | 

Row | Sequence | target mRNA inhibition (SK-MEL-28, 4 µM) [%] | target mRNA inhibition (MM.1R, 1 µM) | further results
49 | AAGTGTCTTCCACAAG (sugars k3 d10 k3, PS) | 54 |  | 
50 | ACTGTTACCGATGCTT (sugars kkdddddddddkekek, PS) |  | 30% and 18% | 
51 | TTGATGTGATAGCTGA (sugars kdddddddddkekeke, PS) |  | 34% | 
52 | TTAACCAATCCCAACA (sugars k3 d10 k3, PS) | 30 |  | 
53 | AGTAATTTTAAGGCCC (sugars k3 d10 k3, PS) | 60 |  | 
54 | GCACATCAATGTTTTA (sugars kkdddddddddkekek, PS) |  | 18% and 15% | 
55 | ATAATGTTTCAGTGCT (sugars k3 d10 k3, PS) | 76 |  | 
56 | CCCCAGCTATGCTCTA (sugars k3 d10 k3, PS) |  | -30% | 
57 | CAAATGACTTAGTCAG (sugars k3 d10 k3, PS) | 55 |  | 
58 | TAAAGGAGTGCAGGAG (sugars k3 d10 k3, PS) | -7 |  | 
59 | TCCACCCTCCGTCTCA (sugars k3 d10 k3, PS) |  | -9% | 
60 | TGTCAAACCCTACTGG (sugars k3 d10 k3, PS) | 23 |  | 
61 | TATTACCATGCATAGT (sugars k3 d10 k3, PS) | 30 |  | 
62 | AGTATGAGAAACGGCC (sugars kkdddddddddkekek, PS) |  | 3% | 
63 | GACGACTTAAGCTAAA (sugars k3 d10 k3, PS) | 62 |  | 
64 | TACAAGGTCTGAGTTG (sugars k3 d10 k3, PS) |  | -6% | 
65 | TTGGTTGGCTGGTCTT (sugars kdddddddddkekeke, PS) |  | -7% | 
66 | GCACAGCCCTTGGTTA (sugars k3 d10 k3, PS) |  | 3% | 
67 | ACAGAGGTGGGAGTAC (sugars k3 d10 k3, PS) | -74 |  | 
68 | AGACATTACTAGATTG (sugars k3 d10 k3, PS) | 66 |  | 
69 | AATGGAGCATCCGCTT (sugars k3 d10 k3, PS) | -7 |  | 
70 | GGCATACAGTGTGATT (sugars k3 d10 k3, PS) | 25 |  | 
71 | TTCCAACCTTTATGAT (sugars k3 d10 k3, PS) | 7 |  | 
